The assay addresses MAPK14 (human) (UniProt Q16539). The assay is described as follows: Inhibition of MAPK14 Kinase Activity.
Sequence of MAPK14 (human) (Q16539 whole entry, looked up): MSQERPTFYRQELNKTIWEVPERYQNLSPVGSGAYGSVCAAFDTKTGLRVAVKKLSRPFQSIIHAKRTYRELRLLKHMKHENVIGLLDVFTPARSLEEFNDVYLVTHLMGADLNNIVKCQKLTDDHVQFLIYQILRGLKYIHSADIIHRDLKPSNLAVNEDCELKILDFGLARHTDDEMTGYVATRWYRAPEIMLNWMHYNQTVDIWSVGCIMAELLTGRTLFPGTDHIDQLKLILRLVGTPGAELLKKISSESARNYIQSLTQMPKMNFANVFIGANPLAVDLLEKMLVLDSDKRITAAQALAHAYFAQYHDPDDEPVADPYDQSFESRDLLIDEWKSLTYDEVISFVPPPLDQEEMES
As to `CC(C)n1c(N2CCC[C@@H]2CO)nc(OCc2ccc(F)cc2F)c(Br)c1=O`, the IC50 worked out at 0.0298 µM and the Ki was determined as 0.0157 µM.

Consider `CC(C)n1c(NCCNC(=O)C(C)(C)O)nc(OCc2ccc(F)cc2F)c(Cl)c1=O`, for which the IC50 came to 0.0516 µM and the inhibition constant (Ki) came out at 0.0247 µM.

The molecule `CC(C)n1c(NCC(=O)NCCO)nc(OCc2ccc(F)cc2F)c(Br)c1=O` displayed an IC50 of 0.221 µM and a Ki of 0.105 µM.

`CC(C)n1c(N2CC[C@H](NC(=O)C(C)(C)O)C2)nc(OCc2ccc(F)cc2F)c(Cl)c1=O` yielded an IC50 of 0.864 µM and a Ki of 0.555 µM.

As to `CC(C)n1c(N2CCC(NC(=O)CN)C2)nc(OCc2ccc(F)cc2F)c(Br)c1=O` (stereo not drawn), the IC50 was found to be 0.217 µM and the Ki turned out to be 0.118 µM.

`CC(C)n1c(NCCCNC(=O)CO)nc(OCc2ccc(F)cc2F)c(Br)c1=O`: the IC50 was 0.0125 µM and the Ki worked out at 0.00595 µM.

For the molecule `CC(C)n1c(CCCC(=O)NCCO)nc(OCc2ccc(F)cc2F)c(Br)c1=O`, the IC50 stood at 0.6 µM and the Ki was determined as 0.278 µM.

On to `CC(C)n1c(OCCNC(=O)NCCO)nc(OCc2ccc(F)cc2F)c(Cl)c1=O`, for which the IC50 came out at 0.398 µM and the Ki was found to be 0.19 µM.

`CC(C)n1c(NC[C@@H](O)CO)nc(OCc2ccc(F)cc2F)c(Br)c1=O`: the IC50 was found to be 0.0216 µM and the inhibition constant Ki amounted to 0.0111 µM.

Molecule `CC(C)n1c(NCCNS(C)(=O)=O)nc(OCc2ccc(F)cc2F)c(Cl)c1=O` displayed an IC50 of 0.0223 µM and a Ki of 0.0103 µM.

In the case of `CNC(=O)NCCOc1nc(OCc2ccc(F)cc2F)c(Cl)c(=O)n1C(C)C`, the IC50 was 0.249 µM and the Ki is 0.123 µM.

In the case of `CC(C)n1c(CCC(N)=O)nc(OCc2ccc(F)cc2F)c(Cl)c1=O`, the IC50 came out at 2.04 µM and the Ki worked out at 0.976 µM.

Turning to `CC(C)n1c(N2CCC[C@H]2C(N)=O)nc(OCc2ccc(F)cc2F)c(Br)c1=O`, the IC50 worked out at 0.0238 µM and the Ki turned out to be 0.0123 µM.

With `CC(C)n1c(OCCNC(N)=O)nc(OCc2ccc(F)cc2F)c(Cl)c1=O`, the IC50 was 0.0212 µM and the Ki turned out to be 0.0124 µM.

`CC(C)n1c(-c2ccccc2)nc(OCc2ccc(F)cc2F)cc1=O` returned an IC50 of 3.18 µM and a Ki of 1.69 µM.

`CC(C)n1c(NCCCC(N)=O)nc(OCc2ccc(F)cc2F)c(Br)c1=O`: the IC50 stood at 0.0173 µM and the Ki came to 0.00882 µM.

For `CC(C)n1c(CCCC(=O)NC[C@@H](C)O)nc(OCc2ccc(F)cc2F)c(Cl)c1=O`, the IC50 amounted to 0.594 µM and the Ki amounted to 0.31 µM.

Turning to `CC(C)n1c(NCCCNC(N)=O)nc(OCc2ccc(F)cc2F)c(Br)c1=O`, the IC50 is 0.005 µM and the Ki is 0.00209 µM.

Consider `CC(C)n1c(-c2cccc(C(N)=O)c2)nc(OCc2ccc(F)cc2F)c(Br)c1=O`, for which the IC50 was 0.608 µM and the Ki came to 0.378 µM.

Consider `CC(C)n1c(OCCCC(=O)NCCO)nc(OCc2ccc(F)cc2F)c(Cl)c1=O`, for which the IC50 came out at 0.33 µM and the Ki came to 0.157 µM.

Take `CC(C)n1c(NCCNC(=O)C(C)(C)O)nc(OCc2ccc(F)cc2F)c(Br)c1=O`: the IC50 was 0.0172 µM and the Ki was found to be 0.00814 µM.

Molecule `CC(C)n1c(NCCCNS(C)(=O)=O)nc(OCc2ccc(F)cc2F)c(Br)c1=O` showed an IC50 of 0.0072 µM and a Ki of 0.00332 µM.

`CC(C)n1c(NCCC(C)(C)C)nc(OCc2ccc(F)cc2F)c(Br)c1=O`: the IC50 was found to be 0.131 µM and the Ki turned out to be 0.0661 µM.

For the molecule `CC(=O)NCCOc1nc(OCc2ccc(F)cc2F)c(Br)c(=O)n1C(C)C`, the IC50 turned out to be 0.051 µM and the Ki was 0.0274 µM.

Turning to `CC(C)n1c(OCCCC(N)=O)nc(OCc2ccc(F)cc2F)c(Cl)c1=O`, the IC50 amounted to 0.155 µM and the inhibition constant Ki amounted to 0.0734 µM.

As for `CC(C)n1c(-c2ccccc2)nc(OCc2ccc(F)cc2F)c(Cl)c1=O`, the IC50 is 0.26 µM and the Ki came out at 0.144 µM.

As for `CC(C)n1c(N2CCNCC2)nc(OCc2ccc(F)cc2F)c(Br)c1=O`, the IC50 worked out at 0.732 µM and the Ki was 0.379 µM.

The molecule `CC(C)n1c(NC[C@H](O)CO)nc(OCc2ccc(F)cc2F)c(Br)c1=O` registered a concentration for half-maximal inhibition (IC50) of 0.0183 µM and a Ki of 0.00905 µM.

Take `CC(C)n1c(N2CCCC(C(N)=O)C2)nc(OCc2ccc(F)cc2F)c(Br)c1=O` (stereo not drawn): the IC50 was 0.119 µM and the Ki came to 0.0616 µM.

`CC(C)n1c(CCCC(N)=O)nc(OCc2ccc(F)cc2F)c(Br)c1=O` displayed an IC50 of 0.391 µM and a Ki of 0.181 µM.

`CC(C)n1c(-c2ccc(C(N)=O)cc2)nc(OCc2ccc(F)cc2F)cc1=O`: the IC50 came out at 0.26 µM and the Ki is 0.144 µM.

`CC(C)n1c(N2CC[C@H](N)C2)nc(OCc2ccc(F)cc2F)c(Br)c1=O`: the 50% inhibitory concentration (IC50) is 0.818 µM and the Ki is 0.435 µM.

For the molecule `CC(C)n1cnc(OCc2ccc(F)cc2F)c(Br)c1=O`, the IC50 amounted to 0.053 µM and the Ki was 0.0283 µM.

In the case of `CCNC(=O)NCc1cc(F)ccc1COc1nc(C)n(C(C)C)c(=O)c1Cl`, the IC50 came to 0.38 µM and the Ki amounted to 0.174 µM.

Regarding `CC(C)n1c(NCCNC(=O)CO)nc(OCc2ccc(F)cc2F)c(Cl)c1=O`, the IC50 is 0.0221 µM and the Ki amounted to 0.0102 µM.

`CC(C)n1c(N2CC[C@@H](NC(=O)C(C)(C)O)C2)nc(OCc2ccc(F)cc2F)c(Cl)c1=O` had an IC50 of 0.484 µM and a Ki of 0.31 µM.

`CC(C)n1c(NCC(N)=O)nc(OCc2ccc(F)cc2F)c(Br)c1=O` gave an IC50 of 0.0141 µM and a Ki of 0.00703 µM.

In turn, `CC(C)n1c(N2CCN(C(=O)C(C)(C)N)CC2)nc(OCc2ccc(F)cc2F)c(Br)c1=O` had an IC50 of 0.531 µM and a Ki of 0.222 µM.

The molecule `CC(=O)N1CCC(Nc2nc(OCc3ccc(F)cc3F)c(Br)c(=O)n2C(C)C)CC1` came in with a half-inhibitory concentration (IC50) of 0.0879 µM and a Ki of 0.0414 µM.

Regarding `CC(C)n1c(N2CCN(CC(N)=O)CC2)nc(OCc2ccc(F)cc2F)c(Br)c1=O`, the IC50 turned out to be 0.251 µM and the Ki came out at 0.104 µM.

In the case of `CC(C)n1c(OCCN)nc(OCc2ccc(F)cc2F)c(Br)c1=O`, the IC50 came out at 0.334 µM and the Ki stood at 0.14 µM.

Molecule `CC(=O)NCCCNc1nc(OCc2ccc(F)cc2F)c(Br)c(=O)n1C(C)C` yielded an IC50 of 0.013 µM and a Ki of 0.00662 µM.

Molecule `CC(C)n1c(OCCNC(N)=O)nc(OCc2ccc(F)cc2F)c(Br)c1=O` displayed an IC50 of 0.0026 µM and a Ki of 0.000713 µM.

In turn, `CC(C)n1c(-c2ccccc2)nc(OCc2ccc(F)cc2F)c(Br)c1=O` yielded an IC50 of 0.112 µM and a Ki of 0.0591 µM.

Consider `COC(=O)c1ccc(CNc2nc(OCc3ccc(F)cc3F)c(Br)c(=O)n2C(C)C)cc1`, for which the IC50 turned out to be 0.637 µM and the Ki stood at 0.304 µM.

`CC(=O)NCc1nc(OCc2ccc(F)cc2F)c(Br)c(=O)n1C(C)C` yielded an IC50 of 1.38 µM and a Ki of 0.675 µM.

Regarding `CC(C)n1cnc(OCc2ccc(F)cc2F)c(Cl)c1=O`, the IC50 was found to be 0.296 µM and the Ki is 0.148 µM.

`CC(C)n1c(CCCC(=O)NCCO)nc(OCc2ccc(F)cc2F)c(Cl)c1=O` showed an IC50 of 0.612 µM and a Ki of 0.315 µM.

The molecule `CC(C)n1c(N(C)CC(N)=O)nc(OCc2ccc(F)cc2F)c(Cl)c1=O` yielded an IC50 of 1.68 µM and an inhibition constant (Ki) of 0.774 µM.

The molecule `C=CCCc1nc(OCc2ccc(F)cc2F)c(Cl)c(=O)n1C(C)C` gave an IC50 of 0.164 µM and an inhibition constant Ki of 0.0799 µM.

Turning to `CC(C)n1c(OCCNS(C)(=O)=O)nc(OCc2ccc(F)cc2F)c(Br)c1=O`, the IC50 is 0.0185 µM and the Ki was found to be 0.00947 µM.

Molecule `Cc1nc(OCc2ccc(F)cc2F)c(Cl)c(=O)n1C(C)C` gave an IC50 of 0.346 µM and a Ki of 0.155 µM.

The molecule `CNC(=O)CCCc1nc(OCc2ccc(F)cc2F)c(Br)c(=O)n1C(C)C` gave an IC50 of 0.557 µM and a Ki of 0.255 µM.

As for `CC(C)n1c(S(C)(=O)=O)nc(OCc2ccc(F)cc2F)c(Br)c1=O`, the IC50 came out at 0.299 µM and the Ki was 0.156 µM.

The molecule `CC(C)n1c(N2CC[C@H](N)C2)nc(OCc2ccc(F)cc2F)c(Cl)c1=O` registered an IC50 of 1.66 µM and a Ki of 1.07 µM.

In the case of `CC(C)n1c(N2CC[C@@H](O)C2)nc(OCc2ccc(F)cc2F)c(Br)c1=O`, the IC50 came to 0.605 µM and the Ki worked out at 0.297 µM.

On to `CNC(=O)CCc1nc(OCc2ccc(F)cc2F)c(Cl)c(=O)n1C(C)C`, for which the IC50 was determined as 2.43 µM and the Ki turned out to be 1.16 µM.

Molecule `CC(C)n1c(N2CCN(C(=O)CN)CC2)nc(OCc2ccc(F)cc2F)c(Br)c1=O` showed an IC50 of 0.158 µM and a Ki of 0.081 µM.

`CSc1cc(OCc2ccc(F)cc2F)c(Br)c(=O)n1C(C)C` displayed an IC50 of 0.23 µM and a Ki of 0.119 µM.

On to `CC(C)n1c(N2CC[C@@H](N)C2)nc(OCc2ccc(F)cc2F)c(Cl)c1=O`, for which the IC50 worked out at 0.497 µM and the Ki was 0.319 µM.

`CC(=O)NCCCCc1nc(OCc2ccc(F)cc2F)c(Cl)c(=O)n1C(C)C` registered an IC50 of 0.334 µM and a Ki of 0.159 µM.

As to `CC(C)n1c(OCCCC(=O)O)nc(OCc2ccc(F)cc2F)c(Cl)c1=O`, the IC50 amounted to 0.229 µM and the Ki came to 0.109 µM.

In turn, `CC(C)n1c(NCC(C)(C)O)nc(OCc2ccc(F)cc2F)c(Br)c1=O` displayed an IC50 of 0.0317 µM and a Ki of 0.0166 µM.

In turn, `CC(C)n1c(CCC(=O)O)nc(OCc2ccc(F)cc2F)c(Cl)c1=O` showed an IC50 of 2.33 µM and a Ki of 1.11 µM.

With `CC(=O)NCCOc1nc(OCc2ccc(F)cc2F)c(Cl)c(=O)n1C(C)C`, the IC50 stood at 0.0804 µM and the Ki is 0.0493 µM.

Molecule `CC(C)n1c(N2CCC(O)CC2)nc(OCc2ccc(F)cc2F)c(Br)c1=O` gave a concentration for half-maximal inhibition (IC50) of 0.304 µM and a Ki of 0.166 µM.

In the case of `CN[C@@H]1CCN(c2nc(OCc3ccc(F)cc3F)c(Br)c(=O)n2C(C)C)C1`, the IC50 is 0.0128 µM and the Ki came to 0.00637 µM.

Molecule `CC(C)n1c(NCCNC(N)=O)nc(OCc2ccc(F)cc2F)c(Cl)c1=O` came in with an IC50 of 0.0196 µM and a Ki of 0.0101 µM.

For `CC(C)n1c(OCC(N)=O)nc(OCc2ccc(F)cc2F)c(Br)c1=O`, the IC50 came out at 0.27 µM and the Ki worked out at 0.132 µM.

A word on the IC50: it is the concentration needed to halve the response being measured. Read a low IC50 as higher potency. As usually defined, the Ki is a measure of affinity in units of concentration, obtained from inhibition or displacement. The low end stands for higher affinity, the high end for lower affinity.

Values taken from the Kinase Knowledgebase extract (Sharma et al. 2016).
